Each structure is given as a SMILES string.

The source of these data is patent US10188674B2, “Parenteral formulations for administering macrolide antibiotics” (Cempra Pharmaceuticals, Inc., priority 2012, dated 2019).

One data set concerns dog. In words: 28 day toxicology study, intravenous infusion, dog. Format: in vivo. Particulars: 28 days, tartrate-buffered solution of 1 mg/mL in 3% mannitol infused at approximately 1 mL/min. The text has this: (§1) An intravenous infusion solution of SOL and related compounds suitable for treatment in a disease such as moderately severe to severe community acquired bacterial pneumonia (CABP) is needed. […] However, without being bound by theory, it is believed herein that infusion at higher concentrations and/or at higher rates of infusion, which are highly desirable in the clinical setting, may not be practical with current formulations due to the substantially lower solubility observed with SOL and related compounds compared to other macrolide, enolide, and ketolide compounds.

Data set [1] is described as follows: Acid dissociation constants of SOL. Type of data set: physicochemical. From the text:
[drawing 4] and pharmaceutically acceptable salts, hydrates, solvates, esters, and prodrugs thereof. The following acid dissociation constants are observed for SOL, pKa1=9.44; pKa2=3.5. Such dissociation constants are illustrative of compounds that may be characterized as having low basicity.

The next data set relates to monkey. Kind of data set: 28 day toxicology study, intravenous infusion, monkey. Particulars: 28 days, tartrate-buffered solution of 1 mg/mL in 3% mannitol infused at approximately 1 mL/min. Type of data set: in vivo.
Text: as §1

The test system of data set [2] is New Zealand White female rabbits. In words: Tolerance Evaluation, Multiple-Dose Rabbit Ear Vein Model Study. Type of data set: in vivo. As to the method: Tolerance Evaluation of Following Intravenous Infusion in the Rabbit. Multiple-Dose Rabbit Ear Vein Model Study. New Zealand White female rabbits weighing 2.5-3.2 kg are evaluated for pain, ear inflammation and phlebitis after receiving an intravenous infusion of test compound once daily for 5 days.
SOL is dissolved in a 0.5% lactic acid formulation at pH 4, and then into 0.45% saline at concentrations of 2 mg/mL or 3 mg/mL.
Four rabbits are dosed; one vehicle-dosed and one each at 2 mg/mL (rate of 3 mL/min), 3 mg/mL (rate of 3 mL/min) and 3 mg/mL (rate of 4 mL/min). All rabbits receive a dose volume of 5 mL and are dosed via intravenous infusion in the right marginal ear vein once daily for 5 days. Animals are observed during and post (30 minutes) each infusion and reactions recorded.

Data set [3] can be described thus: Dynamic Precipitation Model (absorbance at 500 nm on infusion into blood surrogate). Format: physicochemical. As to the method:
Dynamic Precipitation Model. The dynamic precipitation apparatus is shown in FIG. 1, and is also described in Johnson et al., (2003). The apparatus includes a predetermined distance, illustratively a 15 cm distance, between the tip of the injection needle and the UV flow cell, and three main components to simulate blood flow and different infusion rates of drug. Illustratively, a Cole-Palmer-Masterflex® 7520-00 peristaltic pump is used to direct the flow of blood surrogate at 5 mL/min. Illustratively, a Harvard Apparatus Precision Syringe Pump 22 is used to infuse drug formulations into the system at various injection rates. Illustratively, a Cary UV-50 Bio Spectrophotometer with a 1.00 cm flow cell is used to monitor absorbance as a measure of precipitation in the formulation-blood surrogate system. Each sample is prepared by dissolving test compound and formulation agents into water or vehicle, and adjusting the pH with either 1 M HCl or 1 M NaOH, as appropriate to the indicated final concentration of test compound. Lactic, citric, and tartaric acid formulation agent stock solutions are made by dissolving the predetermined weight of solid or liquid into water and adjusting pH with either 1 M HCl or 1 M NaOH. The blood surrogate (Isotonic Sorensen's Phosphate Buffer, 0.067 M, pH 7.4) is pumped from a reservoir through Tygon® tubing (R-6306) fitted with 2 IV-set Y-injection sites that pass into the flow cell and terminate in a waste container. […]-35 flow meter, along with a timer and graduated cylinder, is used to measure the rate of surrogate blood flow through the system. Illustratively, flow is 5 mL/min. The test compound formulations are infused at different rates through the downstream second Y-injection site into the flow of the blood surrogate entering into the flow cell. A 0.001 M HCl solution is injected into the first Y-injection site following each infusion of test compound to flush the downstream tubing and flow cell. All injections are performed at 25° C. The spectrophotometer software (Cary UVWin) is set to read a constant absorbance, illustratively 500 nm, versus time. Samples are made with buffer and drug concentrations as described. After the flow rate is confirmed at 5 mL/min, the spectrophotometer is set to record absorbance at 500 nm for 5-10 minutes, and injections are performed at different rates as specified. To prevent any residual precipitation build up in the tubing or flow cell, a flush of pH 3 HCl is performed between injections. The flow cell is optionally visually inspected between runs for the presence of precipitation. Static precipitation measurements are also optionally performed by a two-fold serial dilution of test compound formulation in blood surrogate using a laser pointer as a Tyndall beam to determine the presence of particulates. […] An absorbance at or above 0.05 is considered to be the threshold level for assessing precipitation having phlebitic potential.

For the compound `CC[C@H]1OC(=O)[C@@](C)(F)C(=O)[C@H](C)[C@@H](O[C@@H]2O[C@H](C)C[C@H](N(C)C)[C@H]2O)[C@](C)(OC)C[C@@H](C)C(=O)[C@H](C)[C@H]2N(CCCCn3cc(-c4cccc(N)c4)nn3)C(=O)O[C@]12C` [SOL, solithromycin], the “pain or other adverse events” value with dog and in the data set on monkey was “without evidence of pain or other adverse events” in each case. In data set [1], this compound showed a pKa1 of 9.44. For the same compound, in data set [1], the pKa2 is on record as 3.5. For the same compound, the “observations, Days 4 and 5” value in data set [2] (2 mg/mL, rate of 3 mL/min, also seen in the vehicle-treated rabbit) is recorded as “mechanical irritation around the needle stick, without reaction distal to the needle”. In data set [2] (3 mg/mL, rate of 4 mL/min), the further observation result is “Head and ear twitching”. Besides, the “observations, Day 3 until day 5” value in data set [2] (3 mg/mL, rates of 3 or 4 mL/min) is “vessel dilation and irritation around and past the needle stick”. For the same compound, in data set [2] (0.5% lactic acid formulation pH 4 in 0.45% saline, 5 mL once daily for 5 days, any of the rabbits), the “adverse effects, Days 1 and 2” value is “No adverse effects”. In addition, the Absorbance result was “BQL” in data set [3] (1 mg/mL in 0.45% Saline, 0.3 mL/min); “BQL” in data set [3] (1 mg/mL in 0.45% Saline, 1.0 mL/min); “BQL” in data set [3] (1 mg/mL in 0.45% Saline, 3.0 mL/min); “about 0.1” in data set [3] (1 mg/mL in 0.45% Saline, 6.0 mL/min); “BQL” in data set [3] (1 mg/mL in 5% Mannitol, 0.3 mL/min); “BQL” in data set [3] (1 mg/mL in 5% Mannitol, 1.0 mL/min). Moreover, the Absorbance in data set [3] (1 mg/mL in 5% Mannitol, 3.0 mL/min) is recorded as 0.01; in data set [3] (1 mg/mL in 5% Mannitol, 6.0 mL/min), “about 0.05”; in data set [3] (2 mg/mL in 0.45% Saline, 0.3 mL/min), “BQL”; in data set [3] (2 mg/mL in 0.45% Saline, 1.0 mL/min) it was “BQL”; in data set [3] (2 mg/mL in 0.45% Saline, 3.0 mL/min), “about 0.02”; in data set [3] (2 mg/mL in 0.45% Saline, 6.0 mL/min), “about 0.1”. Further, the Absorbance entry in data set [3] (2 mg/mL in 5% Mannitol, 0.3 mL/min) is “BQL”; in data set [3] (2 mg/mL in 5% Mannitol, 1.0 mL/min), “about 0.03”; in data set [3] (2 mg/mL in 5% Mannitol, 3.0 mL/min) it was “about 0.06”; in data set [3] (2 mg/mL in 5% Mannitol, 6.0 mL/min) it was “about 0.1”; in data set [3] (3 mg/mL in 0.45% Saline, 0.3 mL/min) it was “BQL”; in data set [3] (3 mg/mL in 0.45% Saline, 1.0 mL/min) it was “about 0.02”. The Absorbance result is given as “about 0.1” in data set [3] (3 mg/mL in 0.45% Saline, 3.0 mL/min); “about 0.3” in data set [3] (3 mg/mL in 0.45% Saline, 6.0 mL/min); “BQL” in data set [3] (3 mg/mL in 5% Mannitol, 0.3 mL/min); “about 0.1” in data set [3] (3 mg/mL in 5% Mannitol, 1.0 mL/min); “about 0.4” in data set [3] (3 mg/mL in 5% Mannitol, 3.0 mL/min); “about 0.6” in data set [3] (3 mg/mL in 5% Mannitol, 6.0 mL/min). In data set [3] (3 mg/mL, 3 mL/min, pH 4.0, 0.9% NaCl), the Absorbance entry is on record as “− ((−) = ≥0.05)”. In addition, the “injection rates at which precipitation is noted” value in data set [3] (1 mg/mL in 5% Mannitol) is “greater than or equal to 3.0 mL/min”; in data set [3] (2 mg/mL in 5% Mannitol) it was “greater than or equal to 1.0 mL/min”; in data set [3] (3 mg/mL in 0.45% Saline), “greater than or equal to 1.0 mL/min”; in data set [3] (3 mg/mL in 5% Mannitol) it was “greater than or equal to 1.0 mL/min”; in data set [3] (2 or 1 mg/mL in 0.45% saline, 1.0 mL/min is borderline) it was “greater than 1.0 mL/min”. Also, the precipitation result in data set [3] (2 mg/mL in 10 mM Tartaric Acid in 5% Mannitol, pH 4.2, 3 mL/min, infusion 1 minute) was “minimal precipitation”; in data set [3] (2 mg/mL in 20 mM Tartaric Acid in 5% Mannitol, pH 4.2, 3 mL/min, infusion 1 minute) it was “minimal precipitation”; in data set [3] (2 mg/mL in 38.5 mM Tartaric Acid and 0.5% Monothioglycerol in 3% Mannitol, pH 4.0, 2, 3 or 4 mL/min, infusion 5 minutes) it was “minimal precipitation”; in data set [3] (2 mg/mL in 38.5 mM Tartaric Acid in 5% Mannitol, pH 4.0, 2, 3 or 4 mL/min, infusion 5 minutes) it was “minimal precipitation”. In addition, in data set [3] (3 mg/mL in 5 mM Tartaric Acid in 5% Mannitol pH 4.2 vs SOL 2 mg/mL in 5% Mannitol, 2 or 3 mL/min, infusion 2 minutes), the “effect of tartaric acid on observed precipitation” value is on record as “substantially decreases the amount of observed precipitation”. The “effect of citrate buffer on precipitation” value in data set [3] (0.5, 1 and 5 mM citrate buffer (pH 4) in 0.45% saline, 2 mg/mL and 3 mg/mL) is listed as “does not significantly reduce precipitation”. Also, the “effect of tartrate buffer on precipitation” value in data set [3] (10 or 25 mM tartrate buffer (pH 4) in 0.45% saline, 2 mg/mL and 3 mg/mL) is reported as “does not significantly reduce precipitation”.
With `CC[C@H]1OC(=O)[C@H](C)[C@@H](O[C@H]2C[C@@](C)(OC)[C@@H](O)[C@H](C)O2)[C@H](C)[C@@H](O[C@@H]2O[C@H](C)C[C@H](N(C)C)[C@H]2O)[C@](C)(O)C[C@@H](C)C(=O)[C@H](C)[C@@H](O)[C@]1(C)O` [erythromycin-lactobionate, erythromycin lactobionate, reference compound], in data set [3] (2 mg/mL, 3 mL/min, 0.9% NaCl), the Absorbance entry was “++++ ((++++) = BQL of <0.003)”.
